This is an account of results in US5733912A, “7A-heterocycle substituted hexahydro-1H-pyrrolizine compounds useful in controlling chemical synaptic transmission” (Abbott Laboratories, priority 1997, dated 1998).

Molecules are shown by their SMILES. Structures can show the parent of a compound that is named as a salt.

Experiment [1] addresses neuronal nicotinic acetylcholine receptors. Description: Displacement of [3H]-cytisine from nicotinic acetylcholine receptors, crude synaptic membrane preparations from whole rat brain. The conditions noted are these: [3H]-cytisine 1.25 nM, whole rat brain membranes, 60 minutes at 4° C.; IC50 converted to Ki by Cheng and Prusoff; read-out: Binding to Neuronal Nicotinic Acetylcholine Receptors (Binding). As to the method:
For the purpose of identifying compounds as cholinergic agents which are capable of interacting with nicotinic acetylcholine receptors in the brain, a ligand-receptor binding assay was carried out as the initial screen. Compounds of the present invention were effective at interacting with neuronal nicotinic acetylcholine receptors as assayed for their ability to displace radioligand from neuronal nicotinic acetylcholine channel receptors labeled with [^3 H]-cytisine ([^3 H]-CYT).
Displacement of [^3 H]-CYT from nicotinic acetylcholine receptors was determined using crude synaptic membrane preparations from whole rat brain (Pabreza et al., Molecular Pharmacol., 1990, 39: 9). Washed membranes were stored at -80° C. prior to use. Frozen aliquots were slowly thawed and resuspended in 20 volumes of buffer (containing: 120 mM NaCl, 5 mM KCl, 2 mM MgCl2, 2 mM CaCl2 and 50 mM Tris-Cl, pH 7.4 @4° C.). After centrifuging at 20,000×g for 15 minutes, the pellets were resuspended in 30 volumes of buffer. Homogenate (containing 125-150 μg protein) was added to triplicate tubes containing concentrations of test compound and [^3 H]-CYT (1.25 nM) in a final volume of 500 μL. Samples were incubated for 60 minutes at 4° C., then rapidly filtered through Whatman GF/B filters presoaked in 0.5% polyethylimine using 3×4 mL of ice-cold buffer. The filters are counted in 4 mL of Ecolume® (ICN). Nonspecific binding was determined in the presence of 10 μM (-)-nicotine and values were expressed as a percentage of total binding.

The subject of experiment [2] is neuronal nicotinic acetylcholine receptors. The experiment in a line: 86Rb+ efflux assay in IMR-32 human neuroblastoma cells (activation or inhibition of neuronal nicotinic acetylcholine receptors). The experiment is classed as cell-based. The conditions noted are these: for IMR-32 % response (conc.): relative to the response elicited by 100 μM (S)-nicotine; for IMR-32 % Inhibition (conc.): inhibition of the efflux elicited by 100 μM (S)-nicotine. As to the method:
Cells of the IMR-32 human neuroblastoma clonal cell line (ATCC, Rockville, Md.) were maintained in a log phase of growth according to established procedures (Lukas, 1993). Experimental cells were seeded at a density of 500,000 cells/mL into a 24-well tissue culture dish. Plated cells were allowed to proliferate for at least 48 hours before loading with 2 μCi/mL of ^86 Rb^+ (35 Ci/mmol) overnight at 37° C. The ^86 Rb^+ efflux assays were performed according to previously published protocols (Lukas, R. J., J. Pharmacol. Exp. Ther., 265: 294-302, 1993) except serum-free Dulbecco's Modified Eagle's Medium was used during the ^86 Rb^+ loading, rinsing, and agonist-inducedefflux steps.
Responses (reported as percent relative to the response elicited by 100 μM (S)-nicotine) are shown for the indicated concentrations of selected compounds of the invention. The inhibition data (given for other selected compounds) reflect inhibition of the efflux elicited by 100 μM (S)-nicotine at the indicated concentration. […] This finding is in agreement with the results of others who have linked dopamine release, which is dependent upon the ion flux in synaptic transmission, to binding at nicotinic receptors (cf., for example, Lippiello and Caldwell, U.S. Pat. No. 5,242,935, issued Sep. 7, 1993; Caldwell and Lippiello, U.S. Pat. No. 5,248,690, issued Sep. 28, 1993; and Wonnacott et al., Prog. Brain Res., 79: 157-163 (1989)).

In the case of `Cc1cc(C23CCCN2CCC3)on1.Cl` [Example 1, 7a-(3-methyl-5-isoxazolyl)-hexahydro-1H-pyrrolizine hydrochloride], the Ki in experiment [1] was determined as 0.97 nM. Besides, the “IMR-32 % response (conc.)” value in experiment [2] (10 μM) is listed as 110%.
On to `Cc1cc(C23CCCN2CCC3)[nH]n1` [Example 2, 7a-(1H-3-methyl-5-pyrazolyl)-hexahydro-1H-pyrrolizine dihydrochloride], for which the Ki in experiment [1] came out at 70 nM.
For the compound `Cl.c1cncc(C23CCCN2CCC3)c1` [Example 3, 7a-(3-pyridinyl)-hexahydro-1H-pyrrolizine hydrochloride], the Ki in experiment [1] came to 0.38 nM. The “IMR-32 % response (conc.)” value in experiment [2] (10 μM) worked out at 71%.
On to `Cl.Cl.c1ccc2ncc(C34CCCN3CCC4)cc2c1` [Example 4, 7a-(3-quinolinyl)-hexahydro-1H-pyrrolizine dihydrochloride], for which the Ki in experiment [1] is 4.3 nM. The “IMR-32 % response (conc.)” value in experiment [2] (10 μM) worked out at 40%.
As to `Cl.Clc1ccc(C23CCCN2CCC3)cn1` [Example 5, 7a-(6-chloro-3-pyridinyl)-hexahydro-1H-pyrrolizine hydrochloride], the Ki in experiment [1] turned out to be 0.1 nM. Also, the “IMR-32 % response (conc.)” value in experiment [2] (1 μM) is 82%.
Regarding `Fc1ncccc1C12CCCN1CCC2` [Example 6, 7a-(2-fluoro-3-pyridinyl)-hexahydro-1H-pyrrolizine hydrochloride salt], the Ki in experiment [1] worked out at 5.7 nM.
In the case of `Clc1ncccc1C12CCCN1CCC2` [Example 7, 7a-(2-chloro-3-pyridinyl)-hexahydro-1H-pyrrolizine hydrochloride], the Ki in experiment [1] was found to be 436 nM.
Regarding `Cl.Clc1cc(C23CCCN2CCC3)cnc1Cl` [Example 8, 7a-(5,6-dichloro-3-pyridinyl)-hexahydro-1H-pyrrolizine hydrochloride], the Ki in experiment [1] turned out to be 0.055 nM. For the same compound, the “IMR-32 % response (conc.)” value in experiment [2] (1 μM) is on record as 71%.
With `Cl.c1ncc(C23CCCN2CCC3)cn1` [Example 9, 7a-(5-pyrimidinyl)-hexahydro-1H-pyrrolizine hydrochloride], in experiment [1], the Ki was determined as 3.7 nM. Moreover, the “IMR-32 % response (conc.)” value in experiment [2] (100 μM) was 39%.
Turning to `Cl.Fc1ccc(C23CCCN2CCC3)c(F)n1` [Example 10, 7a-(2,6-difluoro-3-pyridinyl)-hexahydro-1H-pyrrolizine hydrochloride], the Ki in experiment [1] stood at 2.9 nM. In experiment [2] (10 μM), the “IMR-32 % Inhibition (conc.)” value is 12% and the “IMR-32 % response (conc.)” value came to 13%.
Take `Clc1ccc(C23CCCN2CCC3)c(Cl)n1` [Example 11, 7a-(2,6-dichloro-3-pyridinyl)-hexahydro-1H-pyrrolizine hydrochloride salt]: the Ki in experiment [1] amounted to 1420 nM.
Take `Cl.Fc1ccc(C23CCCN2CCC3)cn1` [Example 12, 7a-(6-fluoro-3-pyridinyl)-hexahydro-1H-pyrrolizine hydrochloride salt]: the Ki in experiment [1] was 0.27 nM. Moreover, the “IMR-32 % response (conc.)” value in experiment [2] (10 μM) is 93%.
Consider `CCc1cc(C23CCCN2CCC3)on1.Cl` [Example 13, 7a-(3-ethyl-5-isoxazolyl)-hexahydro-1H-pyrrolizine hydrochloride salt], for which the Ki in experiment [1] is 1.4 nM. Moreover, in experiment [2] (100 μM), the “IMR-32 % response (conc.)” value was 108%.
For `CCCc1cc(C23CCCN2CCC3)on1.Cl` [Example 14, 7a-(3-propyl-5-isoxazolyl)-hexahydro-1H-pyrrolizine hydrochloride salt], the Ki in experiment [1] amounted to 1.7 nM. Moreover, the “IMR-32 % response (conc.)” value in experiment [2] (100 μM) amounted to 74%.
For `c1ccc(Cc2cc(C34CCCN3CCC4)on2)cc1` [Example 15, 7a-(3-benzyl-5-isoxazolyl)-hexahydro-1H-pyrrolizine hydrochloride salt], the Ki in experiment [1] stood at 4 nM.
For the compound `Cl.Oc1cncc(C23CCCN2CCC3)c1` [Example 16, 7a-(3-hydroxy-5-pyridinyl)-hexahydro-1H-pyrrolizine hydrochloride salt], the Ki in experiment [1] stood at 1.4 nM. In experiment [2] (100 μM), the “IMR-32 % response (conc.)” value turned out to be 53%.
In the case of `c1ccc(COc2cncc(C34CCCN3CCC4)c2)cc1` [Example 16b, 7a-(3-benzyloxy-5-pyridinyl)-hexahydro-1H-pyrrolizine], the Ki in experiment [1] worked out at 0.27 nM.
For `Brc1cncc(C23CCCN2CCC3)c1.Cl` [Example 17, 7a-(5-bromo-3-pyridinyl)-hexahydro-1H-pyrrolizine hydrochloride salt], the Ki in experiment [1] came out at 0.61 nM. The “IMR-32 % response (conc.)” value in experiment [2] (10 μM) was found to be 41%.
Take `Cc1cc(C23CCCN2CCC3)cnc1F.Cl` [Example 18, 7a-(6-fluoro-5-methyl-3-pyridinyl)hexahydro-1H-pyrrolizine hydrochloride salt]: in experiment [1], the Ki was 0.11 nM. Moreover, the “IMR-32 % response (conc.)” value in experiment [2] (10 μM) amounted to 66%.
As to `Cc1cc(C23CCCN2CCC3)cnc1Cl.Cl` [Example 19, 7a-(6-chloro-5-methyl-3-pyridinyl)-hexahydro-1H-pyrrolizine hydrochloride salt], the Ki in experiment [1] worked out at 0.05 nM. The “IMR-32 % response (conc.)” value in experiment [2] (1 μM) is 91%.
On the same counts, the results for `Cc1ccc(C23CCCN2CCC3)cn1.Cl` [Example 20, 7a-(6-methyl-3-pyridinyl)-hexahydro-1H-pyrrolizine hydrochloride salt] are 0.56 nM and 98%.
The like results for `Cc1cncc(C23CCCN2CCC3)c1.Cl` [Example 21, 7a-(5-methyl-3-pyridinyl)-hexahydro-1H-pyrrolizine hydrochloride salt] were, in that order, 0.33 nM and 56%.
As to `Cl.Fc1ncc(C23CCCN2CCC3)cc1Br` [Example 22, 7a-(5-bromo-6-fluoro-3-pyridinyl)-hexahydro-1H-pyrrolizine hydrochloride salt], the Ki in experiment [1] was 0.22 nM. The “IMR-32 % response (conc.)” value in experiment [2] (10 μM) is given as 42%.
Regarding `Cl.Fc1ncc(C23CCCN2CCC3)cc1Cl` [Example 23, 7a-(5-chloro-6-fluoro-3-pyridinyl)-hexahydro-1H-pyrrolizine hydrochloride salt], in experiment [1], the Ki is 0.23 nM. Moreover, the “IMR-32 % response (conc.)” value in experiment [2] (10 μM) is listed as 68%.
On to `Cc1ccncc1C12CCCN1CCC2.Cl` [Example 24, 7a-(4-methyl-3-pyridinyl)-hexahydro-1H-pyrrolizine hydrochloride salt], for which the Ki in experiment [1] turned out to be 72 nM. Also, in experiment [2] (10 μM), the “IMR-32 % Inhibition (conc.)” value came to 14%. For the same compound, the “IMR-32 % response (conc.)” value in experiment [2] (100 μM) came to 0%.
Take `c1ccc(-c2cncc(C34CCCN3CCC4)c2)cc1` [Example 25, 7a-(5-phenyl-3-pyridinyl)-hexahydro-1H-pyrrolizine hydrochloride salt]: in experiment [1], the Ki turned out to be 0.25 nM.
